Experimental data published in patent publication US11285156B2, “Substituted piperazines as KRAS G12C inhibitors” (Amgen Inc., priority 2018, dated 2022).

Target: GDP-bound KRAS protein (aa 1-169), containing both G12C and C118A amino acid substitutions (Homo sapiens (Human), UniProt P01116, C118A/G12C)
Assay: Coupled nucleotide exchange assay (SOS-mediated nucleotide exchange, AlphaScreen)
Assay type: biochemical
Settings: 5 min compound pre-incubation
Procedure: Coupled Nucleotide Exchange Assay:
Following compound pre-incubation, purified SOS protein (aa 564-1049) and GTP (Roche 10106399001) were added to the assay wells and incubated for an additional 30 min (for 5 min compound pre-incubation) or 1 hour (for 2 hour compound pre-incubation). […] The assay plates were then read on a PerkinElmer EnVision Multilabel Reader, using AlphaScreen® technology, and data were analyzed using a 4-parameter logistic model to calculate IC50 values.

GDP-bound KRAS protein (aa 1-169), containing both G12C and C118A amino acid substitutions, sequence (P01116 other isoform, or with tags, fused parts or gaps G12C/C118A): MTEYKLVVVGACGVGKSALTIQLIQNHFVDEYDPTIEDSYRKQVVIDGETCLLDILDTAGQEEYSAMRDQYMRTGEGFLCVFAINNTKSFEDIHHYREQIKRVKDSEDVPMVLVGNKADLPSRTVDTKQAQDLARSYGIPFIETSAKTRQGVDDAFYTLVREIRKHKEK

Coupled exchange IC50 (5 min; μM) | SMILES
1.48 µM | C=CC(=O)N1C[C@H](C)N(c2nc(=O)n(-c3c(C)cc(CN(C)C)cc3C(C)C)c3nc(-c4ccccc4F)c(Cl)cc23)C[C@H]1C (single isomer, unassigned) [Example 121-4]
0.066 µM | C=CC(=O)N1C[C@H](C)N(c2nc(=O)n(-c3c(C)cc(C4CC4)nc3C(C)C)c3nc(-c4ccccc4F)c(Cl)cc23)C[C@H]1C (single isomer, unassigned) [Example 164-1]
3.44 µM | C=CC(=O)N1C[C@H](C)N(c2nc(=O)n(-c3c(C)cc(C4CC4)nc3C(C)C)c3nc(-c4ccccc4F)c(Cl)cc23)C[C@H]1C (single isomer, unassigned) [Example 164-2]
1.032 µM | C=CC(=O)N1C[C@H](C)N(c2nc(=O)n(-c3c(C)cc(CC)nc3C(C)C)c3nc(-c4ccccc4F)c(Cl)cc23)C[C@H]1C (single isomer, unassigned) [Example 166-2]
0.14 µM | C=CC(=O)N1C[C@H](C)N(c2nc(=O)n(-c3c(C(C)C)cc(N4CCC4)nc3C(C)C)c3nc(-c4ccccc4F)c(Cl)cc23)C[C@H]1C (single isomer, unassigned) [Example 182-1]
0.187 µM | C=CC(=O)N1C[C@H](C)N(c2nc(=O)n(-c3c(C(C)C)cc(N4CCC4)nc3C(C)C)c3nc(-c4ccccc4F)c(Cl)cc23)C[C@H]1C (single isomer, unassigned) [Example 182-2]
2.99 µM | C=CC(=O)N1C[C@H](C)N(c2nc(=O)n(-c3c(C)nc(Cl)nc3C(C)C)c3nc(-c4ccccc4F)c(Cl)cc23)C[C@H]1C (single isomer, unassigned) [Example 191-1]
1.59 µM | C=CC(=O)N1C[C@H](C)N(c2nc(=O)n(-c3c(C)nc(Br)nc3C(C)C)c3nc(-c4ccccc4F)c(Cl)cc23)C[C@H]1C (single isomer, unassigned) [Example 197-1]
1.34 µM | C=CC(=O)N1C[C@H](C)N(c2nc(=O)n(-c3c(C(C)C)cccc3[S+](C)[O-])c3nc(-c4ccccc4F)c(Cl)cc23)C[C@H]1C (single isomer, unassigned) [Example 209-2]

SMILES | Coupled exchange IC50 (5 min; μM)
C=CC(=O)N1CCN(c2nc(=O)n(-c3c(C)cc(N)nc3C(C)C)c3nc(-c4ccccc4F)c(Cl)cc23)[C@@H](C)C1 (single isomer, unassigned) [Example 183-1] | 0.61 µM
C=CC(=O)N1C[C@H](C)N(c2nc(=O)n(-c3c(N)ncnc3C(C)C)c3nc(-c4ccccc4F)c(Cl)cc23)C[C@H]1C (single isomer, unassigned) [Example 189-2] | 14.7 µM
C=CC(=O)N1C[C@H](C)N(c2nc(=O)n(-c3c(C)ncnc3C(C)C)c3nc(-c4ccccc4F)c(Cl)cc23)C[C@H]1C (single isomer, unassigned) [Example 194-2] | 1.45 µM
C=CC(=O)N1C[C@H](C)N(c2nc(=O)n(-c3c(C)cc([S+](C)[O-])cc3C(C)C)c3nc(-c4ccccc4C)c(Cl)cc23)C[C@H]1C (single isomer, unassigned) [Example 213-1] | 1.5 µM

Same assay, conditions: read-out: Coupled exchange IC50 (5 min; μM); 5 min compound pre-incubation

SMILES | IC50
C=CC(=O)N1C[C@H](C)N(c2nc(=O)n(-c3c(CN(C)C)cccc3C(C)C)c3nc(-c4ccccc4F)c(Cl)cc23)C[C@H]1C (single isomer, unassigned) [Example 80-14-1] | 1.26 µM
C=CC(=O)N1C[C@H](C)N(c2nc(=O)n(-c3c(CN(C)C)ccnc3C(C)C)c3nc(-c4ccccc4F)c(Cl)cc23)C[C@H]1C (single isomer, unassigned) [Example 80-16-2] | 0.903 µM
C=CC(=O)N1C[C@H](C)N(c2nc(=O)n(-c3c(CN(C)C)ncnc3C(C)C)c3nc(-c4ccccc4F)c(Cl)cc23)C[C@H]1C (single isomer, unassigned) [Example 80-18-1] | 1.39 µM
C=CC(=O)N1C[C@H](C)N(c2nc(=O)n(-c3c(C)cc(CN(C)C)cc3C(C)C)c3nc(-c4ccccc4F)c(F)cc23)C[C@H]1C (single isomer, unassigned) [Example 80-20-1] | 13.9 µM
C=CC(=O)N1C[C@H](C)N(c2nc(=O)n(-c3c(C)cc(CN(C)C)cc3C(C)C)c3nc(-c4c(O)cccc4F)c(F)cc23)C[C@H]1C (single isomer, unassigned) [Example 80-21-1] | 0.949 µM
C=CC(=O)N1C[C@H](C)N(c2nc(=O)n(-c3c(Cl)ncnc3C(C)C)c3nc(-c4ccccc4C)c(Cl)cc23)C[C@H]1C (single isomer, unassigned) [Example 102-6-2] | 0.726 µM
C=CC(=O)N1C[C@H](C)N(c2nc(=O)n(-c3c(C)cc(P(C)(C)=O)cc3C(C)C)c3nc(-c4ccccc4F)c(Cl)cc23)C[C@H]1C (single isomer, unassigned) [Example 102-7-2] | 5.28 µM
C=CC(=O)N1C[C@H](C)N(c2nc(=O)n(-c3c(N(C)C)ccnc3C(C)C)c3nc(-c4ccccc4C(C)C)c(Cl)cc23)C[C@H]1C (single isomer, unassigned) [Example 103-1-1] | 1.26 µM
C=CC(=O)N1C[C@H](C)N(c2nc(=O)n(-c3c(N(CC)CC)ccnc3C(C)C)c3nc(-c4ccccc4C(C)C)c(Cl)cc23)C[C@H]1C (single isomer, unassigned) [Example 103-6-1] | 1.15 µM
C=CC(=O)N1C[C@H](C)N(c2nc(=O)n(-c3c(N(C)C)ccnc3C(C)C)c3nc(-c4ccccc4C)c(Cl)cc23)C[C@H]1C (single isomer, unassigned) [Example 103-7-1] | 0.653 µM
C=CC(=O)N1C[C@H](C)N(c2nc(=O)n(-c3c(C)ccnc3C(C)C)c3nc(-c4ccccc4F)c(Cl)nc23)C[C@H]1C (single isomer, unassigned) [Example 106-6-1] | 3.67 µM
C=CC(=O)N1C[C@H](C)N(c2nc(=O)n(-c3c(CC)ncnc3C(C)C)c3nc(-c4ccccc4C)c(Cl)cc23)C[C@H]1C (single isomer, unassigned) [Example 109-2-2] | 0.226 µM
C=CC(=O)N1C[C@H](C)N(c2nc(=O)n(-c3c(N(C)C)ccnc3C(C)C)c3nc(-c4c(F)cccc4NC(=O)CC)c(Cl)cc23)C[C@H]1C (single isomer, unassigned) [Example 122-2-1] | 17.3 µM
C=CC(=O)N1C[C@H](C)N(c2nc(=O)n(-c3c(N(C)C)ccnc3C(C)C)c3nc(-c4c(F)cccc4NC(=O)C4CC4)c(Cl)cc23)C[C@H]1C (single isomer, unassigned) [Example 122-3-1] | 6.82 µM
C=CC(=O)N1[C@H](C)CN(c2nc(=O)n(-c3c(C)cc(N)nc3C(C)C)c3nc(-c4c(O)cccc4F)c(F)cc23)C[C@@H]1C (single isomer, unassigned) [Example 123-1] | 1.25 µM
C=CC(=O)N1[C@H](C)CN(c2nc(=O)n(-c3c(C)cc(N)nc3C(C)C)c3nc(-c4ccccc4F)c(F)cc23)C[C@@H]1C (single isomer, unassigned) [Example 123-3] | 14 µM
C=CC(=O)N1[C@H](C)CN(c2nc(=O)n(-c3c(C)cc(N)nc3C(C)C)c3nc(-c4ccccc4F)c(F)cc23)C[C@@H]1C (single isomer, unassigned) [Example 123-4] | 1 µM
C=CC(=O)N1CCN(c2nc(=O)n(-c3c(C)ccnc3C(C)C)c3nc(-c4c(O)cccc4F)c(F)cc23)C(C)C1C (single isomer, unassigned) [Example 124-14-1, 4-[cis-2,3-dimethyl-4-prop-2-enoyl-piperazin-1-yl]-6-fluoro-7-(2-fluoro-6-hydroxy-phenyl)-1-(2-isopropyl-4-methyl-3-pyridyl)pyrido[2,3-d]pyrimidin-2-one] | 22.2 µM
C=CC(=O)N1CCN(c2nc(=O)n(-c3c(C)ccnc3C(C)C)c3nc(-c4c(O)cccc4F)c(F)cc23)C(C)C1C (single isomer, unassigned) [Example 124-14-2, 4-[cis-2,3-dimethyl-4-prop-2-enoyl-piperazin-1-yl]-6-fluoro-7-(2-fluoro-6-hydroxy-phenyl)-1-(2-isopropyl-4-methyl-3-pyridyl)pyrido[2,3-d]pyrimidin-2-one] | 59.5 µM
C=CC(=O)N1CCN(c2nc(=O)n(-c3c(C)ccnc3C(C)C)c3nc(-c4c(O)cccc4F)c(F)cc23)C(C)C1C (single isomer, unassigned) [Example 124-16-1, 4-[trans-2,3-dimethyl-4-prop-2-enoyl-piperazin-1-yl]-6-fluoro-7-(2-fluoro-6-hydroxy-phenyl)-1-(2-isopropyl-4-methyl-3-pyridyl)pyrido[2,3-d]pyrimidin-2-one] | 1.12 µM
C=CC(=O)N1CCN(c2nc(=O)n(-c3c(C)ccnc3C(C)C)c3nc(-c4c(O)cccc4F)c(F)cc23)C(C)C1C (single isomer, unassigned) [Example 124-16-2, 4-[trans-2,3-dimethyl-4-prop-2-enoyl-piperazin-1-yl]-6-fluoro-7-(2-fluoro-6-hydroxy-phenyl)-1-(2-isopropyl-4-methyl-3-pyridyl)pyrido[2,3-d]pyrimidin-2-one] | 7.37 µM
C=CC(=O)N1C[C@H](C)N(c2nc(=O)n(-c3c(C(C)C)ccnc3C(C)C)c3nc(-c4ccccc4C)c(F)cc23)C[C@H]1C (single isomer, unassigned) [Example 125-5] | 0.46 µM
C=CC(=O)N1C[C@H](C)N(c2nc(=O)n3c4nc(c(Cl)cc24)-c2ccccc2C/C=C/Cc2cccc(C(C)C)c2-3)C[C@H]1C (single isomer, unassigned) [Example 146-1-1] | 9.43 µM
C=CC(=O)N1C[C@H](C)N(c2nc(=O)n3c4nc(c(Cl)cc24)-c2ccccc2C/C=C\Cc2cccc(C(C)C)c2-3)C[C@H]1C (single isomer, unassigned) [Example 146-1-2] | 53.8 µM
C=CC(=O)N1C[C@H](C)N(c2nc(=O)n3c4nc(c(Cl)cc24)-c2ccccc2C/C=C/Cc2ccccc2-3)C[C@H]1C (single isomer, unassigned) [Example 146-3-1] | 204 µM
C=CC(=O)N1C[C@H](C)N(c2nc(=O)n3c4nc(c(Cl)cc24)-c2ccccc2C/C=C\Cc2ccccc2-3)C[C@H]1C (single isomer, unassigned) [Example 146-3-3] | 57.3 µM
C=CC(=O)N1C[C@H](C)N(c2nc(=O)n(-c3c(C(C)C)cccc3S(C)(=O)=O)c3nc(-c4ccccc4F)c(Cl)cc23)C[C@H]1C (single isomer, unassigned) [Example 208-1] | 2.56 µM
